Test results taken from patent US20110009335A1, “Anticancer Treatments” (priority 2008, published 2011).
Starred links: 1 amine or outer side, 2 acyl side, 3 side chain; linkers in the order of their positions; H or OH if unused. Positions of bridges follow the written chain, without caps; N, C: chain ends. Non-standard residues stand in square brackets, D forms with d. Residues, ends and D or L forms follow the SMILES beside them. *: point of attachment. X1 = CC[C@H](C)[C@@H](N[*:1])[C@@H](O)CC(=O)O[C@H](C(=O)[C@H](C)C(=O)[*:2])C(C)C; NMeY = CN[C@@H](Cc1ccc(O)cc1)C(=O)O; dNMeL = CN[C@H](CC(C)C)C(=O)O; Pyruvoyl = CC(=O)C(=O)*

Columns and labels:
[1] = test system: A498 human renal tumor xenograft; test: Aplidine with sorafenib, A498 xenograft in athymic nude mice (Example 1); format: in vivo
Description: Female athymic nude mice (Harlan Sprague Dawley, Madison, Wis.) were utilized for all experiments. Mice were implanted with tumor fragments or a cell suspension when mice were 5 weeks of age. Animals were housed in ventilated rack caging, 5 mice per cage, with food and water ad libitum. The mice were acclimated for 1 week prior to being implanted with tumor fragments or cell suspensions.
A498 cells were grown in MEM, 2 mM L-glutamine and 10% FBS. Cells from in vitro passage 4-20 were implanted SC into study mice: 5×10^6 cells/mouse in 0.2 ml 50% Matrigel/50% medium without antibiotics or serum, using a 23 G needle and 1 cc syringe. Matrigel is a biological extracellular matrix that is liquid at 4° C. and solid at 37° C., and it promotes tumor growth by maintaining the cells in close association in a localized area. Bacterial cultures were performed on aliquots of the cells prepared for implantation.
Tumor measurements were determined by using Vernier calipers. The formula to calculate volume for a prolate ellipsoid was used to estimate tumor volume (mm^3) from 2-dimensional tumor measurements: Tumor volume (mm^3)=[L×W^2]÷2, where L is the length and it is the longest diameter in mm, and W is the width and it is the shortest diameter in mm of a tumor. Assuming unit density, volume was converted to weight (i.e., 1 mm^3=1 mg).
Body weights were recorded on treatment days and when tumor sizes were measured. In those days wherein the two drugs were administered the same day, the combination therapy groups were treated by co-administering the two drugs at the same time, with no attempt to sequence the treatments.
Aplidine was provided in the form of vials of lyophilized aplidine powder which was reconstituted in Cremophor EL/ethanol/water (CEW) 15/15/70 to a concentration of 0.5 mg/ml. Then the aplidine solution in CEW was diluted in 0.9% Saline to the dosing formulation concentrations, being the final proportion of CEW of 0.18/0.18/0.84.
Tumor size measurements were recorded twice weekly from the treatment initiation until the termination of the study.
(§1) Mean, standard deviation and standard error of the mean were determined for tumor volume for all animal groups at all assessments. Student's t test was performed on tumor volumes at each measurement day, including at the end of the study, to determine whether there were any statistically significant differences between combination treatment groups and single monotherapy treatment groups.
Determine the % of tumor growth inhibition, as 100−% T/C, for each of the drugs administered as monotherapy at the doses used in the combinations. % T/C was obtained by comparing the mean tumor weight in the treatment groups (T) to the mean tumor weight in the control group (C) (T/C×100%). • 2. The two scores were added together to determine the “expected response” if each agent produced the same response as it did when administered as monotherapy. • 3. This “expected response” was subtracted from the % of tumor growth inhibition determined for the combination therapy group: • a. A negative number meant that the effect of combining the two drugs was less than additive. • b. If the resulting number was close to zero, the effect of combining the two drugs was determined as additive. • c.

[2] = test system: CAKI-1 human renal tumor xenograft; test: Aplidine with temsirolimus, CAKI-1 xenograft in athymic nude mice (Example 4); format: in vivo; details: for % Inhibition G2: aplidine 0.06 mg/kg/day
Description: Female athymic nude mice (Harlan Sprague Dawley, Madison, Wis.) were utilized for all experiments. Mice were implanted with a cell suspension when mice were 6-8 weeks of age. Animals were housed in ventilated rack caging with food and water ad libitum. The mice were acclimated for at least 5 days prior to tumor implantation. […] The tumor model used in this study was CAKI-1, which was implanted in the animals as disclosed in Example 2.
Tumor measurements were determined as disclosed in Example 1. When tumor growth was within an average size range of 140±34 mg (mean±SD), mice were randomized into the treatment and control groups based on tumor weight by using LabCat® In Life module V 8.0 SP1 tumor tracking and measurement software.
The treatment of CAKI-1-tumor-bearing mice was initiated on DPI (Day Post Implantation) 21. Body weights were recorded on treatment days and when tumor sizes were measured. In those days wherein the two drugs were administered the same day, the combination therapy groups were treated by co-administering the two drugs at the same time, with no attempt to sequence the treatments.
Aplidine was provided in the form of vials of lyophilized aplidine powder which was reconstituted in Cremophor EL/ethanol/water (CEW) 15/15/70 to a concentration of 0.5 mg/ml. The aplidine solution in CEW was diluted in 0.9% Saline to the dosing formulation concentrations, being the final proportion of CEW of 0.18/0.18/0.84.
Temsirolimus was provided in the form of vials containing a non-aqueous, ethanolic, sterile solution of temsirolimus, 25 mg/ml. […] Then, the solution was further diluted in 0.9% Saline to the dosing formulation concentrations.
Tumor size measurements were recorded twice weekly from the treatment initiation until the termination of the study. Tumor growth inhibition was assessed comparing the mean tumor weight between the two agents in combination (aplidine and temsirolimus) against temsirolimus mean tumor weight at the different concentrations assayed.
as §1
The definition and criteria for the evaluation of potentiation and the degree of additivity for the combination therapy were the same as those disclosed in Example 1.

[3] = aplidine 0.040 and/or sorafenib 30 mg/kg/day
[4] = aplidine 0.060 and/or sorafenib 60 mg/kg/day
[5] = G2: aplidine 0.060 mg/kg/day IP

CC[C@H](C)[C@H]1NC(=O)[C@@H](NC(=O)[C@@H](CC(C)C)N(C)C(=O)[C@@H]2CCCN2C(=O)C(C)=O)[C@@H](C)OC(=O)[C@H](Cc2ccc(OC)cc2)N(C)C(=O)[C@@H]2CCCN2C(=O)[C@H](CC(C)C)NC(=O)[C@@H](C)C(=O)[C@H](C(C)C)OC(=O)C[C@@H]1O [aplidine, dehydrodidemnin B] (Pyruvoyl-P[dNMeL]T[X1]LP[NMeY](Me); ester 3-C) was tested, and the “% T/C on day 26” value [1, 3] was 100.8%, the “% T/C on day 29” value [1, 3] was 84.6% and the “% T/C on day 33” value [1, 3] was 78.7%. For the same compound, the “% T/C on day 36” value [1, 3] was 74.8%, the “% T/C on day 40” value [1, 3] was 90.2% and the “% T/C on day 43” value [1, 3] was 65.1%. The “% T/C on day 47” value [1, 3] was 89.8%, the “% T/C on day 50” value [1, 3] was 71.5% and the “% T/C on day 54” value [1, 3] was 86.7%. For the same compound, the “% T/C on day 61” value [1, 3] was 89.5%, the “% T/C on day 26” value [1, 4] was 96.8% and the “% T/C on day 29” value [1, 4] was 72.3%. The “% T/C on day 33” value [1, 4] was 71.0%, the “% T/C on day 36” value [1, 4] was 77.0% and the “% T/C on day 40” value [1, 4] was 85.3%. The “% T/C on day 43” value [1, 4] was 78.6%, the “% T/C on day 47” value [1, 4] was 86.5% and the “% T/C on day 50” value [1, 4] was 82.6%. The “% T/C on day 54” value [1, 4] was 90.9%, the “% T/C on day 61” value [1, 4] was 87.8% and the “antitumor activity as single agent (monotherapy)” value ([1]; doses and schedules tested) was “did not reach the NCI criteria for activity”. For the same compound, the “% T/C on day 21” value [2, 5] was 98.2%, the “% T/C on day 24” value [2, 5] was 94.6% and the “% T/C on day 27” value [2, 5] was 75.6%. For the same compound, the “% T/C on day 30” value [2, 5] was 66.0%, the “% T/C on day 34” value [2, 5] was 81.0% and the “% T/C on day 38” value [2, 5] was 91.1%. The “% T/C on day 42” value [2, 5] was 84.1%, the “% T/C on day 45” value [2, 5] was 80.7% and the “% T/C on day 48” value [2, 5] was 80.1%. For the same compound, the “% T/C on day 56” value [2, 5] was 89.8%, the “% T/C on day 58” value [2, 5] was 89.9% and the “% Inhibition G2” value ([2]; day 21) was 1.8%. The “% Inhibition G2” value ([2]; day 24) was 5.4%, the “% Inhibition G2” value ([2]; day 27) was 24.4% and the “% Inhibition G2” value ([2]; day 30) was 34.0%. The “% Inhibition G2” value ([2]; day 34) was 19.0%, the “% Inhibition G2” value ([2]; day 38) was 8.9% and the “% Inhibition G2” value ([2]; day 42) was 15.9%. The “% Inhibition G2” value ([2]; day 45) was 19.3%, the “% Inhibition G2” value ([2]; day 48) was 19.9% and the “% Inhibition G2” value ([2]; day 56) was 10.2%. The “% Inhibition G2” value ([2]; day 58) was 10.1% and the “antitumor activity as single agent (monotherapy)” value ([2]; temsirolimus 10 and 20 mg/kg/day) was “inactive”.
